Measured values reported in PMC4460250, “Systems Pharmacology Dissecting Holistic Medicine for Treatment of Complex Diseases: An Example Using Cardiocerebrovascular Diseases Treated by TCM” (Evidence-based Complementary and Alternative Medicine : eCAM, 2015).

How the values were obtained:
[1] = Human intestinal absorption percentage values of the PreHIA data set (732 compounds, Table S2); settings: class from HIA value
[2] = human; PreHIA data set, value given as fraction; cited from earlier work

Class(High: HIA value ≥0.7; Low: HIA value < 0.7) [1]	SMILES	HIA(Human Intestinal Absorption) [2]
High (High: HIA value ≥0.7)	O=c1[nH]c2ccccc2n1CCCN1CCN(C(c2ccccc2)c2ccccc2)CC1 [Oxatomide]	1
High (High: HIA value ≥0.7)	C[C@@H]1CC(=O)NN=C1c1ccc(NN=C(C#N)C#N)cc1 [Levosimendan]	0.9
High (High: HIA value ≥0.7)	CN1CCC(=C2c3ccccc3C=Cc3ccccc32)CC1 [Cyproheptadine]	0.8
High (High: HIA value ≥0.7)	O=C(O)[C@H]1/C(=C/CO)O[C@@H]2CC(=O)N21 [Clavulanic_acid]	0.75
High (High: HIA value ≥0.7)	CC(C(=O)O)c1ccc(C2CCCC(=NO)C2)cc1 (stereo not drawn) [Ximoprofen]	0.98
High (High: HIA value ≥0.7)	CCc1[nH]c(=O)[nH]c1C(=O)c1ccncc1 [Piroximone]	0.8
High (High: HIA value ≥0.7)	CC(=O)N1CCN(c2ccc(OCC3COC(Cn4ccnc4)(c4ccc(Cl)cc4Cl)O3)cc2)CC1 (stereo not drawn) [Ketoconazole]	0.75
High (High: HIA value ≥0.7)	CCCN(CCC)CCc1cccc2c1CC(=O)N2 [Ropinirole]	0.98
Low (Low: HIA value < 0.7)	O=C(O)[C@H](CCc1ccccc1)N[C@H]1CCCN2CCC[C@@H](C(=O)O)N2C1=O [Cilazaprilat]	0.2
High (High: HIA value ≥0.7)	CN(Cc1cc(Br)cc(Br)c1N)C1CCCCC1 [Bromhexine]	0.7
High (High: HIA value ≥0.7)	CSc1ccc2ncn(/C=C/C(=O)O)c(=O)c2c1 [Tiacrilast]	0.99
Low (Low: HIA value < 0.7)	NS(=O)(=O)c1cc(-c2nnn[nH]2)c(NCc2cccs2)cc1Cl [Azosemide]	0.1
High (High: HIA value ≥0.7)	COCCOc1cnc(NS(=O)(=O)c2ccccc2)nc1 [Glymidine]	0.95
High (High: HIA value ≥0.7)	C#C[C@]1(O)CC[C@H]2[C@@H]3CCC4=CCCC[C@@H]4[C@H]3CC[C@@]21C [Lynestrenol]	1
High (High: HIA value ≥0.7)	CNS(=O)(=O)CCc1ccc2[nH]cc(C3CCN(C)CC3)c2c1 [Naratriptan]	0.7
Low (Low: HIA value < 0.7)	C[N+](C)(C)CC(O)CC(=O)[O-] (stereo not drawn) [Carnitine]	0.1
High (High: HIA value ≥0.7)	CCN(CC)CCOC(=O)C1(C2CCCCC2)CCCCC1 [Dicyclomine]	1
High (High: HIA value ≥0.7)	N=C(N)NC(=O)Cc1c(Cl)cccc1Cl [Guanfacine]	1

Class(High: HIA value ≥0.7; Low: HIA value < 0.7) [1]	SMILES	HIA(Human Intestinal Absorption) [2]
High (High: HIA value ≥0.7)	Clc1ccc2c(c1)C(N1CCNCC1)=Nc1ccccc1O2 [Amoxapine]	0.95
High (High: HIA value ≥0.7)	O=C(c1ccc(F)cc1)C1CCN(CCn2c(=O)[nH]c3ccccc3c2=O)CC1 [Ketanserin]	1
High (High: HIA value ≥0.7)	O=C1CC2(CCCC2)CC(=O)N1CCCCN1CCN(c2ncccn2)CC1 [Buspirone]	1
Low (Low: HIA value < 0.7)	COc1ccc2c(C(=S)N(C)CC(=O)O)cccc2c1C(F)(F)F [Tolrestat]	0.66
High (High: HIA value ≥0.7)	CCCOC(C(=O)OC1CCN(C)CC1)(c1ccccc1)c1ccccc1 [Propiverine]	0.84
High (High: HIA value ≥0.7)	CCO[C@@H](Cc1ccc(OCCc2ccc(OS(C)(=O)=O)cc2)cc1)C(=O)O [Tesaglitazar]	1
Low (Low: HIA value < 0.7)	CCCC[N+]1(C)[C@@H]2C[C@@H](OC(=O)[C@H](CO)c3ccccc3)C[C@H]1[C@@H]1O[C@@H]12 (stereo partly drawn) [Butylscopolamine]	0.1
High (High: HIA value ≥0.7)	CN1C(C(=O)Nc2ccccn2)=C(O)c2sc(Cl)cc2S1(=O)=O [Lornoxicam]	1
High (High: HIA value ≥0.7)	CC(C)=CCC1C(=O)N(c2ccccc2)N(c2ccccc2)C1=O [Feprazone]	0.9
High (High: HIA value ≥0.7)	CCOC(=O)C1=C[C@@H](OC(CC)CC)[C@H](NC(C)=O)[C@@H](N)C1 [Oseltamivir]	0.75
High (High: HIA value ≥0.7)	CC(=O)Nc1ccc(OC(=O)c2ccccc2OC(C)=O)cc1 [Benorylate]	1
High (High: HIA value ≥0.7)	CCCc1cc(C(N)=S)ccn1 [Protionamide]	0.9
High (High: HIA value ≥0.7)	COc1ccc2cc(CCC(C)=O)ccc2c1 [Nabumetone]	0.8
High (High: HIA value ≥0.7)	CN1CCC(=C2c3ccccc3CC(=O)c3sccc32)CC1 [Ketotifen]	0.9
High (High: HIA value ≥0.7)	O=[N+]([O-])c1ccc(O)c2ncccc12 [Nitroxoline]	1
High (High: HIA value ≥0.7)	CC1(C)O[C@@H]2C[C@H]3[C@@H]4CCC5=CC(=O)C=C[C@]5(C)[C@@]4(F)[C@@H](O)C[C@]3(C)[C@]2(C(=O)CO)O1 [Triamcinolone_acetonide]	0.9
Low (Low: HIA value < 0.7)	O=P(O)(O)C(O)(Cc1cccnc1)P(=O)(O)O [Risedronic_acid]	0.01
High (High: HIA value ≥0.7)	CN(C)CCC=C1c2ccccc2COc2ccccc21 [Doxepin]	1

SMILES	Class(High: HIA value ≥0.7; Low: HIA value < 0.7) [1]	HIA(Human Intestinal Absorption) [2]
Oc1ccc(C(O)C2CCCCN2)cc1O (stereo not drawn) [Rimiterol]	Low (Low: HIA value < 0.7)	0.48
C=C[C@H]1C[N@@]2CC[C@H]1C[C@@H]2[C@@H](O)c1ccnc2ccccc12 [Cinchonine]	High (High: HIA value ≥0.7)	1
CC[N+]1(C)[C@@H]2CC(OC(=O)[C@H](CO)c3ccccc3)C[C@H]1[C@@H]1O[C@@H]12 (stereo partly drawn) [Oxitropium]	Low (Low: HIA value < 0.7)	0.16
